# Measurements published in patent US20230053649A1 (Cedilla Therapeutics, Inc., priority 2021, published 2023).
# Legend:
# [1] = target: TEAD1 protein (YAP Binding Domain) (Homo sapiens, UniProt P28347); test: biochemical
# Description: Compound Displacement Assay.
# A TEAD1 lipid pocket displacement assay was carried out according to the following protocol. Purified His-tagged TEAD1 protein (YAP Binding Domain) was pre-mixed with a Cy5-probe (Cy5-conjugated to a small molecule that binds in the TEAD1 lipid pocket) and Terbium-labeled anti-His antibody (Cisbio Cat 61HI2TLB). The binding of the Cy5-probe to anti-His-Tb/His-tag TEAD1 complex yielded a TR-FRET signal. […] After 60 minutes incubation at room temperature of compounds with the His-TEAD1/anti-His-Tb/Cy5-probe complex, the plate was read on a plate reader (BMG ClarioStar Cat 430-1300) using TR-FRET mode with wavelengths of 665 nm/620 nm. The potency of compounds as TEAD1 lipid pocket binders was determined by IC50 value generated using a non-linear 4 parameter curve fit.
# [2] = tested on: mesothelioma cell line NCI-H226; test: 72H TEAD Proliferation Assay (Cell Titer-Glo 2.0); type: cell-based; conditions: Homo sapiens, CTG 2.0, cell line not given in Table 1 (NCI-H226 TEAD-responsive, NCI-H28 non-responsive counter-screen)
# Description: 72H TEAD Proliferation Assay.
# The effect of TEAD inhibition on cell proliferation was assayed using Cell Titer Glo (CTG) 2.0 to measure response in mesothelioma cell lines NCI-H226 (ATCC, #CRL-5826) and NCI-H28 (ATCC, #CRL-5820).
# The 72H TEAD Proliferation assay utilizes Cell Titer-Glo 2.0 (Promega, #G9243) to measure the proliferation of cells in the presence or absence of compound. Cell Titer-Glo 2.0 determines the amount of viable cells by quantifying ATP (an indication of metabolically active cells). It utilizes the conversion of Luciferin to Oxyluciferin and a luminescent signal with the use of ATP to report the quantity of viable cells in culture. Within cells that are continually growing, ATP is being synthesized to meet their metabolic demands, meanwhile the opposite is true for cells that are dying or slowing down their proliferation and either no longer using ATP or are using less, respectively. The NF2-deficient NCI-H226 has been genetically validated as a cell line that is sensitive to TEAD inhibition. The NF2-wild type NCI-H28 has been genetically validated as a cell line that is not sensitive to TEAD inhibition and grows independently of TEAD activity.
# Compounds were screened against the responsive NCI-H226 cell line to assess the compounds' ability to inhibit TEAD and cell growth. Compounds were also screened against the non-responsive NCI-H28 cell line to ascertain whether the inhibition of cell growth was due to inhibition of the target TEAD or whether the inhibition was due to off-target cytotoxicity.
# Both NCI-H226 and NCI-H28 cells were grown at 37° C. with 5% CO2 using Growth Medium 1.
# Anti-proliferative effect of compounds that inhibits TEAD activity measured by CTG
# 1) Assay ready plates (ARPs) were prepared by Echo acoustic liquid handler. For each compound, duplicate of 10-point half-log dilution series were dispensed in a 384-well microplate (Corning 3571).
# 3) Before use, ARPs were allowed to warm up to room temperature for 30 min.
# 4) ARPs were spun for 5 minutes at 1500RPM before removing the plate seals.
# 5) NCI-H226 or NCI-H28 cells were harvested from culture in Assay Medium 1 and the multidrop Combi reagent dispenser was used to seed cells at 500 cells per 50ul in each well of the ARPs and one Corning 3571 plate without compounds for Time 0 (TO) readout.
# 6) The TO plate was incubated for 2 hours at 37° C. with 5% CO2 to allow cells to settle, then the CTG Assay was performed.
# 7) All ARPs were incubated for 72 hours at 37° C. with 5% CO2, then the CTG Assay was performed for Time 72H (T72) readout.
# 8) CTG Assay: Bravo liquid handler (Agilent) was used to add 25ul of CTG 2.0 to all columns of the plate except for Column 24, which was used to subtract out the background. After CTG addition, plates were placed on shaker at 800RPM for 15 minutes at room temperature and kept in the dark. Luminescence was measured using EnVision multilabel plate reader with ultra-sensitive detection module.
# 9) Data Analysis: First background luminescence (no CTG wells) was subtracted from luminescence reading of all wells, then TO luminescence was subtracted from T72 luminescence. To compare anti-proliferative effect of compounds, GI50 was obtained by fitting dose response curves with nonlinear regression curve fit.
# Chain of TEAD1 protein (YAP Binding Domain) (P28347 167-426 limits assumed): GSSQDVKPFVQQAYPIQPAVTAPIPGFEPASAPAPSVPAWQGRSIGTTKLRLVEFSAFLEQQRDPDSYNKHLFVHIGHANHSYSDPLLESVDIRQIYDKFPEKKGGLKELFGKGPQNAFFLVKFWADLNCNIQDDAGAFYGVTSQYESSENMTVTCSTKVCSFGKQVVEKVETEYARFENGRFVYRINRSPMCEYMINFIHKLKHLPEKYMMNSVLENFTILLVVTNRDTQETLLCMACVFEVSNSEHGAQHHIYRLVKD
Compound,IC50 [1] [nM],GI50 [2] [nM]
C[C@H](CO)NC(=O)c1ccc2c(-c3ccc(C(F)(F)F)cc3)[nH]c(=O)cc2c1 [I″-56],> 500,> 5000
"COc1cc2cc(C(=O)N[C@@H](C)c3ccccn3)ccc2c(N2CCC(C(F)(F)F)CC2)n1 [Compound I-64, (S)-3-methoxy-N-(1-(pyridin-2-yl)ethyl)-1-(4-(trifluoromethyl)piperidin-1-yl)isoquinoline-6-carboxamide]",< 150,≤ 500
"COC[C@H](C)NC(=O)c1cnc2c(N3CCC(C(F)(F)F)CC3)cc(OC3CC3)cc2c1 [Compound I-26, (S)-6-cyclopropoxy-N-(1-methoxypropan-2-yl)-8-(4-(trifluoromethyl)piperidin-1-yl)quinoline-3-carboxamide]",300 to 500,500 to 1000
"COc1cc(-c2ccc(Oc3ccccc3)cc2)c2ncc(C(=O)N[C@H](C)CO)cc2c1 [Compound I-19, (R)-N-(1-hydroxypropan-2-yl)-6-methoxy-8-(4-phenoxyphenyl)quinoline-3-carboxamide]",150 to 300,> 5000
"COc1cc(N2CCC(C(F)(F)F)CC2)c2ncc(C(=O)NC(C)(C)CO)cc2c1 [Compound I-10, N-(1-hydroxy-2-methylpropan-2-yl)-6-methoxy-8-(4-(trifluoromethyl)piperidin-1-yl)quinoline-3-carboxamide]",300 to 500,1000 to 5000
"COC[C@H](C)NC(=O)c1ccc2c(N3CCC(C(F)(F)F)CC3)nc(OC)cc2c1 [Compound I-50, (S)-3-Methoxy-N-(1-methoxypropan-2-yl)-1-(4-(trifluoromethyl)piperidin-1-yl)isoquinoline-6-carboxamide]",< 150,500 to 1000
"COc1ccc2c(N3CCC(C(F)(F)F)CC3)nc(C(=O)N[C@H](C)CO)cc2c1 [Compound 67, (R)-N-(1-hydroxypropan-2-yl)-6-methoxy-1-(4-(trifluoromethyl)piperidin-1-yl)isoquinoline-3-carboxamide]",> 500,> 5000
"C[C@H](NC(=O)c1ccc2c(N3CCC(C(F)(F)F)CC3)cccc2c1)c1ccccn1 [Compound I-58, (S)-N-(1-(pyridin-2-yl)ethyl)-5-(4-(trifluoromethyl)piperidin-1-yl)-2-naphthamide]",< 150,≤ 500
"CC(CO)NC(=O)c1cnc2c(OCC3CCC(F)(F)CC3)cccc2c1 (stereo not drawn) [Compound I-47, 8-((4,4-difluorocyclohexyl)methoxy)-N-(1-hydroxypropan-2-yl)quinoline-3-carboxamide]",> 500,> 5000
"C[C@H](CO)NC(=O)c1ccc2c(N3CCC(C(F)(F)F)CC3)cccc2c1 [Compound I-59, (R)-N-(1-hydroxypropan-2-yl)-5-(4-(trifluoromethyl)piperidin-1-yl)-2-naphthamide]",150 to 300,≤ 500
"COc1cc(N2CCC3(CC2)CC(F)(F)C3)c2ncc(C(=O)N[C@H](C)CO)cc2c1 [Compound I-6, (R)-8-(2,2-difluoro-7-azaspiro[3.5]nonan-7-yl)-N-(1-hydroxypropan-2-yl)-6-methoxyquinoline-3-carboxamide]",< 150,500 to 1000
"COC[C@H](C)NC(=O)c1ccc2c(-c3ccc(C(F)(F)F)cc3)nc(OC)cc2c1 [I″-54, (S)-3-Methoxy-N-(1-methoxypropan-2-yl)-1-(4-(trifluoromethyl)phenyl)isoquinoline-6-carboxamide]",< 150,≤ 500
"C#Cc1cccc2cc(C(=O)N[C@@H](C)c3ccccn3)cnc12 [Compound 30, (S)-8-ethynyl-N-(1-(pyridin-2-yl)ethyl)quinoline-3-carboxamide]",> 500,> 5000
"C[C@H](CO)NC(=O)c1cnc2c(N3CCC4(CC3)CC4)cc(OC(F)(F)F)cc2c1 [Compound I-24, (R)-N-(1-hydroxypropan-2-yl)-8-(6-azaspiro[2.5]octan-6-yl)-6-(trifluoromethoxy)quinoline-3-carboxamide]",> 500,> 5000
"CC[C@H](CO)NC(=O)c1ccc2c(N3CCC(C(F)(F)F)CC3)nc(OC)cc2c1 [Compound I-65, (R)-N-(1-hydroxybutan-2-yl)-3-methoxy-1-(4-(trifluoromethyl)piperidin-1-yl)isoquinoline-6-carboxamide]",< 150,≤ 500
"COc1cccc([C@H](C)NC(=O)c2cnc3c(N4CCC(C(F)(F)F)CC4)cc(OC)cc3c2)c1 [Compound I-39, (S)-6-methoxy-N-(1-(3-methoxyphenyl)ethyl)-8-(4-(trifluoromethyl)piperidin-1-yl)quinoline-3-carboxamide]",> 500,≤ 500
"C[C@H](NC(=O)c1cnc2c(C#CC(C)(C)C)cccc2c1)c1ccccn1 [Compound 31, (S)-8-(3,3-dimethylbut-1-yn-1-yl)-N-(1-(pyridin-2-yl)ethyl)quinoline-3-carboxamide]",> 500,1000 to 5000
"C[C@H](CO)NC(=O)c1cnc2c(N3CCC4(CC3)CC4)cc(OC3CC3)cc2c1 [Compound I-25, (R)-6-cyclopropoxy-N-(1-hydroxypropan-2-yl)-8-(6-azaspiro[2.5]octan-6-yl)quinoline-3-carboxamide]",> 500,1000 to 5000
"COc1cc(-c2ccc(OC3CC3)cc2)c2ncc(C(=O)N[C@H](C)CO)cc2c1 [Compound I-20, (R)-8-(4-cyclopropoxyphenyl)-N-(1-hydroxypropan-2-yl)-6-methoxyquinoline-3-carboxamide]",< 150,≤ 500
"COc1cc2cc(C(=O)N[C@@H](C)c3ccccn3)ccc2c(-c2ccc(C(F)(F)F)cc2)n1 [I″-55, (S)-3-methoxy-N-(1-(pyridin-2-yl)ethyl)-1-(4-(trifluoromethyl)phenyl)isoquinoline-6-carboxamide]",< 150,≤ 500
"COc1cc(N2CCC(C(F)(F)F)CC2)c2ncc(C(=O)NC(C)C)cc2c1 [Compound I-38, N-isopropyl-6-methoxy-8-(4-(trifluoromethyl)piperidin-1-yl)quinoline-3-carboxamide]",150 to 300,≤ 500
"COc1cc(N2CCC(C(F)(F)F)CC2)c2ncc(C(=O)N[C@@H](C)C(=O)O)cc2c1 [Compound I-41, (6-methoxy-8-(4-(trifluoromethyl)piperidin-1-yl)quinoline-3-carbonyl)-L-alanine]",150 to 300,> 5000
"COc1cc(N2CCC(C(F)(F)F)CC2)c2ncc(C(=O)N[C@@H](CO)C(C)C)cc2c1 [Compound I-35, (R)-N-(1-hydroxy-3-methylbutan-2-yl)-6-methoxy-8-(4-(trifluoromethyl)piperidin-1-yl) quinolone-3-carboxamide]",300 to 500,500 to 1000
"COc1cc(N2CCC(C(F)(F)F)CC2)c2ncc(C(=O)N[C@@H](C)c3cccc(C(=O)O)c3)cc2c1 [Compound I-43, (S)-3-(1-(6-methoxy-8-(4-(trifluoromethyl)piperidin-1-yl)quinoline-3-carboxamido)ethyl)benzoic acid]",< 150,> 5000
"C[C@H](CO)NC(=O)c1cnc2c(N3CCC4(CC3)CC4)cc(OC(F)F)cc2c1 [Compound I-27, (R)-6-(difluoromethoxy)-N-(1-hydroxypropan-2-yl)-8-(6-azaspiro[2.5]octan-6-yl)quinoline-3-carboxamide]",–,1000 to 5000
"CC(CO)NC(=O)c1ccc2c(OCc3ccc(C(F)(F)F)cc3)cccc2c1 (stereo not drawn) [Compound I-44, N-(1-hydroxypropan-2-yl)-5-((4-(trifluoromethyl)benzyl)oxy)-2-naphthamide]",–,> 5000
"COc1cc(-c2ccc(OC(F)(F)F)cc2F)c2ncc(C(=O)N[C@H](C)CO)cc2c1 [Compound I-21, (R)-8-(2-fluoro-4-(trifluoromethoxy)phenyl)-N-(1-hydroxypropan-2-yl)-6-methoxyquinoline-3-carboxamide]",–,≤ 500
